Tested on: 885724-159-R-J1-PDC complex spheroid viability
Experiment: Anticancer human tumor 885724-159-R-J1-PDC patient-derived pancreatic adenocarcinoma cell line growth inhibition [POLQ]
Conditions: for IC50: curve of first compound; for viability, T/C: stronger effect = lower value
Procedure, shortened: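 Complex spheroid viability model combining PDC tumour cells with endothelial (HUVEC) and MSC stromal cells. Novobiocin, ART-558 or RP6685 were tested singly and in combination with standard and investigational anticancer drugs. Each was titrated in half-log steps from near clinical Cmax, or from 10 microM where Cmax was unknown.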

[1] = second compound 0.0316 µM, first compound 0.00316 µM
[2] = second compound 0.0316 µM, first compound 0.01 µM
[3] = second compound 0.0316 µM, first compound 0.0316 µM
[4] = second compound 0.0316 µM, first compound 0.1 µM
[5] = second compound 0.0316 µM, first compound 0.316 µM
[6] = second compound 0.0316 µM, first compound 1 µM
[7] = second compound 0.1 µM, first compound 0.00316 µM
[8] = second compound 0.1 µM, first compound 0.01 µM
[9] = second compound 0.1 µM, first compound 0.0316 µM
[10] = second compound 0.1 µM, first compound 0.1 µM
[11] = second compound 0.1 µM, first compound 0.316 µM
[12] = second compound 0.1 µM, first compound 1 µM
[13] = second compound 0.316 µM, first compound 0.00316 µM
[14] = second compound 0.316 µM, first compound 0.01 µM
[15] = second compound 0.316 µM, first compound 0.0316 µM
[16] = second compound 0.316 µM, first compound 0.1 µM
[17] = second compound 0.316 µM, first compound 0.316 µM
[18] = second compound 0.316 µM, first compound 1 µM
[19] = second compound 1 µM, first compound 0.00316 µM
[20] = second compound 1 µM, first compound 0.01 µM
[21] = second compound 1 µM, first compound 0.0316 µM
[22] = second compound 1 µM, first compound 0.1 µM
[23] = second compound 1 µM, first compound 0.316 µM
[24] = second compound 1 µM, first compound 1 µM
[25] = second compound 3.16 µM, first compound 0.00316 µM
[26] = second compound 3.16 µM, first compound 0.01 µM
[27] = second compound 3.16 µM, first compound 0.0316 µM
[28] = second compound 3.16 µM, first compound 0.1 µM
[29] = second compound 3.16 µM, first compound 0.316 µM
[30] = second compound 3.16 µM, first compound 1 µM
[31] = second compound 10 µM, first compound 0.00316 µM
[32] = second compound 10 µM, first compound 0.01 µM
[33] = second compound 10 µM, first compound 0.0316 µM
[34] = second compound 10 µM, first compound 0.1 µM
[35] = second compound 10 µM, first compound 0.316 µM
[36] = second compound 10 µM, first compound 1 µM
[37] = second compound 0.0316 µM, first compound 3.16 µM
[38] = second compound 0.0316 µM, first compound 10 µM
[39] = second compound 0.1 µM, first compound 3.16 µM
[40] = second compound 0.1 µM, first compound 10 µM
[41] = second compound 0.316 µM, first compound 3.16 µM
[42] = second compound 0.316 µM, first compound 10 µM
[43] = second compound 1 µM, first compound 3.16 µM
[44] = second compound 1 µM, first compound 10 µM
[45] = second compound 3.16 µM, first compound 3.16 µM
[46] = second compound 3.16 µM, first compound 10 µM
[47] = second compound 10 µM, first compound 3.16 µM
[48] = second compound 10 µM, first compound 10 µM
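Note: spheroids exposed to compounds for 7 days.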

For C=CCn1c(=O)c2cnc(Nc3ccc(N4CCN(C)CC4)cc3)nc2n1-c1cccc(C(C)(C)O)n1 + Cc1cccc(N(C)C(=O)C2C(O)CCN2c2nc(C)cc(C(F)(F)F)c2C#N)c1, the IC50 (second compound 0.0316 µM) was over 1 µM, the IC50 (second compound 0.1 µM) was 0.771 µM and the IC50 (second compound 0.316 µM) was 0.435 µM. It also gave an IC50 (second compound 1 µM) of 0.856 µM, an IC50 (second compound 3.16 µM) of over 1 µM and an IC50 (second compound 10 µM) of 0.817 µM. It also gave a viability, T/C [1] of 101%, a viability, T/C [2] of 95.6% and a viability, T/C [3] of 84.9%. It also gave a viability, T/C [4] of 72.6%, a viability, T/C [5] of 56.5% and a viability, T/C [6] of 51.1%. The viability, T/C [7] was 105%, the viability, T/C [8] was 98% and the viability, T/C [9] was 93%. The viability, T/C [10] was 77.2%, the viability, T/C [11] was 59.9% and the viability, T/C [12] was 47.2%. It also gave a viability, T/C [13] of 98.6%, a viability, T/C [14] of 97.9% and a viability, T/C [15] of 93.7%. The viability, T/C [16] was 73%, the viability, T/C [17] was 53.3% and the viability, T/C [18] was 43.6%. The viability, T/C [19] was 101%, the viability, T/C [20] was 93.8% and the viability, T/C [21] was 88.9%. The viability, T/C [22] was 70.1%, the viability, T/C [23] was 55% and the viability, T/C [24] was 49.4%. The viability, T/C [25] was 92.2%, the viability, T/C [26] was 96.5% and the viability, T/C [27] was 94.2%. It also gave a viability, T/C [28] of 77.7%, a viability, T/C [29] of 61.6% and a viability, T/C [30] of 50%. The viability, T/C [31] was 103%, the viability, T/C [32] was 84.8% and the viability, T/C [33] was 98.2%. For the same compound, the viability, T/C [34] was 82.7%, the viability, T/C [35] was 61.6% and the viability, T/C [36] was 47.5%.
CCc1c2c(nc3ccc(O)cc13)-c1cc3c(c(=O)n1C2)COC(=O)[C@]3(O)CC + Cc1cccc(N(C)C(=O)C2C(O)CCN2c2nc(C)cc(C(F)(F)F)c2C#N)c1 showed an IC50 (second compound 0.0316 µM) of 0.0963 µM, an IC50 (second compound 0.1 µM) of 0.0668 µM and an IC50 (second compound 0.316 µM) of 0.0752 µM. It also gave an IC50 (second compound 1 µM) of 0.0588 µM, an IC50 (second compound 3.16 µM) of 0.053 µM and an IC50 (second compound 10 µM) of 0.0568 µM. The viability, T/C [1] was 80.9%, the viability, T/C [2] was 53.6% and the viability, T/C [3] was 53.3%. The viability, T/C [4] was 52.6%, the viability, T/C [5] was 39.9% and the viability, T/C [6] was 5.13%. For the same compound, the viability, T/C [7] was 80.6%, the viability, T/C [8] was 64.4% and the viability, T/C [9] was 50.5%. It also gave a viability, T/C [10] of 49.4%, a viability, T/C [11] of 35.3% and a viability, T/C [12] of 4.47%. It also gave a viability, T/C [13] of 82.7%, a viability, T/C [14] of 68.3% and a viability, T/C [15] of 55.5%. The viability, T/C [16] was 47.4%, the viability, T/C [17] was 34.5% and the viability, T/C [18] was 4.66%. The viability, T/C [19] was 79.6%, the viability, T/C [20] was 65.8% and the viability, T/C [21] was 51.8%. It also gave a viability, T/C [22] of 46.8%, a viability, T/C [23] of 34.5% and a viability, T/C [24] of 4.77%. The viability, T/C [25] was 98%, the viability, T/C [26] was 62.3% and the viability, T/C [27] was 51.7%. The viability, T/C [28] was 50.7%, the viability, T/C [29] was 28.6% and the viability, T/C [30] was 4.41%. It also gave a viability, T/C [31] of 80.2%, a viability, T/C [32] of 64.9% and a viability, T/C [33] of 52.2%. For the same compound, the viability, T/C [34] was 46.4%, the viability, T/C [35] was 30.1% and the viability, T/C [36] was 4.59%.
In the case of CNCc1ccc(-c2[nH]c3cc(F)cc4c3c2CCNC4=O)cc1 + Cc1cccc(N(C)C(=O)C2C(O)CCN2c2nc(C)cc(C(F)(F)F)c2C#N)c1, the IC50 (second compound 0.0316 µM) is reported as over 10 µM, the IC50 (second compound 0.1 µM) is reported as over 10 µM and the IC50 (second compound 0.316 µM) is reported as over 10 µM. The IC50 (second compound 1 µM) was over 10 µM, the IC50 (second compound 3.16 µM) was over 10 µM and the IC50 (second compound 10 µM) was over 10 µM. It also gave a viability, T/C [3] of 92.2%, a viability, T/C [4] of 102% and a viability, T/C [5] of 98.2%. For the same compound, the viability, T/C [6] was 89.2%, the viability, T/C [37] was 90.3% and the viability, T/C [38] was 83.9%. The viability, T/C [9] was 104%, the viability, T/C [10] was 104% and the viability, T/C [11] was 91.1%. It also gave a viability, T/C [12] of 92.7%, a viability, T/C [39] of 93.3% and a viability, T/C [40] of 83.2%. It also gave a viability, T/C [15] of 104%, a viability, T/C [16] of 94.1% and a viability, T/C [17] of 102%. For the same compound, the viability, T/C [18] was 87.9%, the viability, T/C [41] was 92% and the viability, T/C [42] was 88.5%. For the same compound, the viability, T/C [21] was 92.2%, the viability, T/C [22] was 89.5% and the viability, T/C [23] was 88.7%. It also gave a viability, T/C [24] of 113%, a viability, T/C [43] of 91% and a viability, T/C [44] of 86.3%. It also gave a viability, T/C [27] of 102%, a viability, T/C [28] of 90.8% and a viability, T/C [29] of 97.5%. It also gave a viability, T/C [30] of 96.3%, a viability, T/C [45] of 92.5% and a viability, T/C [46] of 85.2%. The viability, T/C [33] was 97%, the viability, T/C [34] was 103% and the viability, T/C [35] was 85.2%. The viability, T/C [36] was 88%, the viability, T/C [47] was 86.1% and the viability, T/C [48] was 88.5%.
Compound O=C(c1cc(Cc2n[nH]c(=O)c3ccccc23)ccc1F)N1CCN(C(=O)C2CC2)CC1 + Cc1cccc(N(C)C(=O)C2C(O)CCN2c2nc(C)cc(C(F)(F)F)c2C#N)c1 has an IC50 (second compound 0.0316 µM) of over 10 µM, an IC50 (second compound 0.1 µM) of over 10 µM and an IC50 (second compound 0.316 µM) of over 10 µM. For the same compound, the IC50 (second compound 1 µM) was over 10 µM, the IC50 (second compound 3.16 µM) was over 10 µM and the IC50 (second compound 10 µM) was over 10 µM. The viability, T/C [3] was 85.9%, the viability, T/C [4] was 99.1% and the viability, T/C [5] was 97.2%. It also gave a viability, T/C [6] of 94.2%, a viability, T/C [37] of 94.6% and a viability, T/C [38] of 76.3%. It also gave a viability, T/C [9] of 97.3%, a viability, T/C [10] of 104% and a viability, T/C [11] of 100%. For the same compound, the viability, T/C [12] was 102%, the viability, T/C [39] was 94.7% and the viability, T/C [40] was 83.1%. For the same compound, the viability, T/C [15] was 104%, the viability, T/C [16] was 91.7% and the viability, T/C [17] was 91.9%. The viability, T/C [18] was 99.6%, the viability, T/C [41] was 98% and the viability, T/C [42] was 75.9%. The viability, T/C [21] was 109%, the viability, T/C [22] was 84.3% and the viability, T/C [23] was 89.1%. The viability, T/C [24] was 94.1%, the viability, T/C [43] was 94.6% and the viability, T/C [44] was 86.1%. It also gave a viability, T/C [27] of 92%, a viability, T/C [28] of 89.7% and a viability, T/C [29] of 99.1%. For the same compound, the viability, T/C [30] was 89.2%, the viability, T/C [45] was 103% and the viability, T/C [46] was 82.9%. The viability, T/C [33] was 98%, the viability, T/C [34] was 109% and the viability, T/C [35] was 109%. The viability, T/C [36] was 86.1%, the viability, T/C [47] was 104% and the viability, T/C [48] was 79.9%.

Reference: PubChem BioAssay AID1963832 (Molecular Pharmacology Branch, DTP, NCI, 2024)
